In ChEMBL document CHEMBL3045072, “Anti-tyrosinase, antioxidant and antimicrobial activities of hydroxycinnamoylamides” (Med Chem Res, 2013):
Values after ≈ are worked out from the molar mass of the structure shown. Active and inactive are the calls of the source. The calls are words filed in the database; no cut-off is given here.

Columns and labels:
[1] = Inhibition of autoxidation of pure triacylglycerols of sunflower oil at 1 mM by iodometric analysis; format: toxicity; details: 1000 µM
[2] = test system: Radical scavenging activity; experiment: Antioxidant activity assessed as DPPH radical scavenging activity at 3.6 mM after 20 min; format: functional
[3] = test system: Radical scavenging activity; experiment: Antioxidant activity assessed as DPPH radical scavenging activity at 3.6 mM after 10 min; format: functional
[4] = test system: Radical scavenging activity; experiment: Antioxidant activity assessed as DPPH radical scavenging activity at 1.8 mM after 20 min; format: functional
[5] = test system: Radical scavenging activity; experiment: Antioxidant activity assessed as DPPH radical scavenging activity at 0.9 mM after 20 min; format: functional
[6] = test system: Radical scavenging activity; experiment: Antioxidant activity assessed as DPPH radical scavenging activity at 1.8 mM after 10 min; format: functional
[7] = test system: Radical scavenging activity; experiment: Antioxidant activity assessed as DPPH radical scavenging activity at 0.9 mM after 10 min; format: functional
[8] = target: T1, Tyrosinase (Agaricus bisporus) (UniProt O42713); experiment: Inhibition of monophenolase activity of mushroom tyrosinase using L-tyrosine as substrate after 30 min by dopachrome method
T1 sequence (whole entry): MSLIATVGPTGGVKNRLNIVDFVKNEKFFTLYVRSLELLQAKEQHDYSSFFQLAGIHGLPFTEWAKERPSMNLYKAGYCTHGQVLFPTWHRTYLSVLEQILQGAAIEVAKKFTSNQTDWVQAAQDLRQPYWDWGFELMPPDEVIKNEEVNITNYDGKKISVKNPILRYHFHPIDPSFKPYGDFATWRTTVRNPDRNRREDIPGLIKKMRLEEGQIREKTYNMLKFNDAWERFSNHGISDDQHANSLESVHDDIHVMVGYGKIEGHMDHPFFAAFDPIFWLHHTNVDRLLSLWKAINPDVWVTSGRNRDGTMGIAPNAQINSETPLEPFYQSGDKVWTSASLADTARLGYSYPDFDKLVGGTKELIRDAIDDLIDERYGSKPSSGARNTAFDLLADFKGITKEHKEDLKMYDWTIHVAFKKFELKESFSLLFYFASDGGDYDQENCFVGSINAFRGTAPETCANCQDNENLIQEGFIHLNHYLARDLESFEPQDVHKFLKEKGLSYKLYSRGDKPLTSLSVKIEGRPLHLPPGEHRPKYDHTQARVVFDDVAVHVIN

Streptococcus pyogenes = experiment: Antimicrobial activity against Streptococcus pyogenes 10535 assessed as growth inhibition after 24 hr by serial dilution method; format: functional; details: Streptococcus pyogenes, 10535, 24 h
Staphylococcus aureus = experiment: Antimicrobial activity against Staphylococcus aureus 209 assessed as growth inhibition after 24 hr by serial dilution method; format: functional; details: Staphylococcus aureus, 209, 24 h

| Compound | inhibition (INH) [1] | Activity [2] | Activity [3] | Activity [4] | Activity [5] | Activity [6] | Activity [7] | inhibition [8] | MIC (Streptococcus pyogenes) | MIC (Staphylococcus aureus) |
| --- | --- | --- | --- | --- | --- | --- | --- | --- | --- | --- |
| O=C(O)/C=C/c1ccc(O)cc1 [COUMARIC ACID] | Not Active | 6.1% | 4.5% | 4.7% | 2.9% | 3.7% | 2.1% | Active |  |  |
| COC(=O)[C@H](Cc1c[nH]c2ccccc12)NC(=O)/C=C/c1ccc(O)c(OC)c1 |  | 30.9% | 26.4% | 17.4% | 9.76% | 14.5% | 7.96% |  |  |  |
| O=C(/C=C/c1ccc(O)cc1)NCCc1ccc(O)c(O)c1 |  |  |  |  |  |  |  | Active |  |  |
| COC(=O)[C@H](Cc1ccc(O)c(O)c1)NC(=O)/C=C/c1cc(OC)c(O)c(OC)c1 | Active | 82.8% | 80.9% | 45.8% | 25.4% | 43.9% | 23.8% |  |  |  |
| Oc1ccc(O)cc1 |  |  |  |  |  |  |  | Active |  |  |
| COc1cc(/C=C/C(=O)NCCc2ccc(O)cc2)cc(OC)c1O [TRANS-N-SINAPOYLTYRAMINE] | Active |  |  |  |  |  |  |  | 62.5 µg/mL (≈ 182 µM) | 62.5 µg/mL (≈ 182 µM) |
| O=C(O)/C=C/c1ccccc1 [CINNAMIC ACID] | Not Active | 0.35% | 0.32% | 0.35% | 0.32% | 0.32% | 0.3% |  |  |  |
| COc1cc(/C=C/C(=O)O)cc(OC)c1O [SINAPINATE] | Active | 69.6% | 69% | 31.9% | 17.2% | 26.5% | 16.1% |  | 125 µg/mL (≈ 558 µM) | 125 µg/mL (≈ 558 µM) |
| COC(=O)[C@H](Cc1c[nH]c2ccccc12)NC(=O)/C=C/c1ccccc1 |  | 1.48% | 1.18% | 1.41% | 0.69% | 1.2% | 0.79% |  |  |  |
| COC(=O)[C@H](Cc1ccc(O)c(O)c1)NC(=O)/C=C/c1ccc(O)c(OC)c1 |  | 87% | 83.8% | 50.6% | 28.5% | 44.8% | 24.3% |  |  | 125 µg/mL (≈ 323 µM) |
| O=C(O)/C=C/c1ccc(O)c(O)c1 [CAFFEIC ACID] | Active | 91.8% | 88% | 64.3% | 34.1% | 62.1% | 33.5% |  | 125 µg/mL (≈ 694 µM) | 125 µg/mL (≈ 694 µM) |
| COc1cc(/C=C/C(=O)N[C@@H](Cc2ccccc2)C(=O)OC(C)(C)C)cc(OC)c1O |  | 50.6% | 46.8% | 28.2% | 16.7% | 25% | 13.7% |  |  |  |
| COC(=O)[C@H](Cc1ccc(O)c(O)c1)NC(=O)/C=C/c1ccccc1 [N-CINNAMOYL-DOPA METHYL ESTER] | Active | 88.1% | 85% | 48.4% | 26.6% | 45.5% | 24.4% |  |  |  |
| COC(=O)[C@H](Cc1ccc(O)c(O)c1)NC(=O)/C=C/c1ccc(O)cc1 | Active | 67.1% | 64.4% | 34.8% | 19.1% | 33.3% | 18% | Active |  |  |
| COC(=O)[C@H](Cc1ccccc1)NC(=O)/C=C/c1ccccc1 |  | 2.58% | 2.18% | 2.6% | 2.52% | 2.39% | 2% |  |  |  |
| COC(=O)[C@H](Cc1ccc(O)cc1)NC(=O)/C=C/c1ccc(O)cc1 |  | 1.88% | 1.44% | 1.42% | 0.71% | 1.04% | 0.64% | Active |  |  |
| COc1cc(/C=C/C(=O)NCCc2ccc(O)c(O)c2)ccc1O [N-TRANS-FERULOYLDOPAMINE] |  |  |  |  |  |  |  |  | 125 µg/mL (≈ 380 µM) | 62.5 µg/mL (≈ 190 µM) |
| COc1cc(/C=C/C(=O)NCCc2ccc(O)cc2)ccc1O [N-TRANS-FERULOYL TYRAMINE] |  |  |  |  |  |  |  |  | 125 µg/mL (≈ 399 µM) | 62.5 µg/mL (≈ 199 µM) |

| Compound | inhibition (INH) [1] | Activity [2] | Activity [3] | Activity [4] | Activity [5] | Activity [6] | Activity [7] | inhibition [8] | MIC (Streptococcus pyogenes) | MIC (Staphylococcus aureus) |
| --- | --- | --- | --- | --- | --- | --- | --- | --- | --- | --- |
| COC(=O)[C@H](Cc1ccc(O)cc1)NC(=O)/C=C/c1ccccc1 |  | 2.57% | 2.12% | 2.3% | 2.12% | 2.05% | 1.74% |  |  |  |
| COC(=O)[C@H](Cc1ccc(O)cc1)NC(=O)/C=C/c1cc(OC)c(O)c(OC)c1 |  | 45.3% | 43% | 25% | 15.6% | 23.1% | 14.2% |  | 250 µg/mL (≈ 623 µM) | 125 µg/mL (≈ 311 µM) |
| COC(=O)[C@H](Cc1c[nH]c2ccccc12)NC(=O)/C=C/c1ccc(O)cc1 |  | 2.88% | 2.42% | 2.37% | 2.13% | 1.69% | 1.92% |  |  |  |
| O=C(/C=C/c1ccc(O)c(O)c1)NCCc1c[nH]c2ccccc12 |  |  |  |  |  |  |  |  | 62.5 µg/mL (≈ 194 µM) | 125 µg/mL (≈ 388 µM) |
| COC(=O)[C@H](Cc1ccccc1)NC(=O)/C=C/c1ccc(O)c(O)c1 [N-CAFFEOYL-PHENYLALANINE METHYL ESTER] | Active | 90.5% | 90.3% | 54.6% | 29.7% | 53.5% | 28.8% |  |  |  |
| COc1cc(/C=C/C(=O)NCCc2c[nH]c3ccccc23)cc(OC)c1O |  |  |  |  |  |  |  |  | 62.5 µg/mL (≈ 171 µM) | 250 µg/mL (≈ 682 µM) |
| COC(=O)[C@H](Cc1c[nH]c2ccccc12)NC(=O)/C=C/c1ccc(O)c(O)c1 | Active | 87.9% | 80.1% | 50.4% | 28.7% | 44.6% | 27.1% |  | 250 µg/mL (≈ 657 µM) |  |
| O=C(/C=C/c1ccc(O)cc1)NCCc1ccc(O)cc1 |  |  |  |  |  |  |  | Active |  |  |
| COC(=O)[C@H](Cc1c[nH]c2ccccc12)NC(=O)/C=C/c1cc(OC)c(O)c(OC)c1 |  | 49.9% | 48.1% | 27.3% | 14.6% | 26% | 13.7% |  | 250 µg/mL (≈ 589 µM) |  |
| COc1cc(/C=C/C(=O)N[C@@H](Cc2ccccc2)C(=O)OC(C)(C)C)ccc1O |  | 36.9% | 30.4% | 23.6% | 13.5% | 19.5% | 10.9% |  |  |  |
| Cc1c(C)c2c(c(C)c1O)CCC(C)(CCCC(C)CCCC(C)CCCC(C)C)O2 (racemic) |  | 73.3% | 62.9% | 46.8% | 24.8% | 40.8% | 23.2% |  |  |  |
| COC(=O)[C@H](Cc1ccc(O)c(O)c1)NC(=O)/C=C/c1ccc(O)c(O)c1 [N-CAFFEOYL-DOPA METHYL ESTER] | Active | 88.8% | 88.7% | 86% | 50.5% | 82.5% | 44.8% |  |  |  |
| COC(=O)[C@H](Cc1ccc(O)cc1)NC(=O)/C=C/c1ccc(O)c(OC)c1 |  | 29.2% | 24.8% | 16.2% | 8.79% | 13.7% | 7.04% |  |  | 15 µg/mL (≈ 40.4 µM) |
| O=c1c(O)c(-c2ccc(O)c(O)c2)oc2cc(O)cc(O)c12 |  | 78% | 76% | 58.4% | 45.2% | 46.7% | 40.4% |  |  |  |
| COC(=O)[C@H](Cc1ccc(O)cc1)NC(=O)/C=C/c1ccc(O)c(O)c1 |  | 90.2% | 89.6% | 52.5% | 28.7% | 51% | 27.4% |  |  |  |
| NC[C@H]1O[C@H](O[C@H]2[C@H](O)[C@@H](O[C@H]3O[C@H](CO)[C@@H](O)[C@H](N)[C@H]3O)[C@H](N)C[C@@H]2N)[C@H](N)C[C@@H]1O [TOBRAMYCIN] |  |  |  |  |  |  |  |  | 7.81 µg/mL (≈ 16.7 µM) | 15.6 µg/mL (≈ 33.4 µM) |
| COc1cc(/C=C/C(=O)O)ccc1O [FERULATE] | Active | 44.3% | 36.7% | 25.1% | 13.8% | 21% | 12.6% |  | 125 µg/mL (≈ 644 µM) | 125 µg/mL (≈ 644 µM) |
| CC(C)(C)OC(=O)[C@H](Cc1ccccc1)NC(=O)/C=C/c1ccc(O)cc1 |  | 2.92% | 2.46% | 2.23% | 2.3% | 1.89% | 1.97% |  |  |  |
